Calls of active or inactive are those of the source. The rule behind the calls is not given here.
Key:
Ileum [1] = assay: Ex vivo spasmolytic activity in ACh-induced contractions in Sprague-Dawley rat ileum incubated for 5 mins; assay type: functional, tissue-based
Ileum [2] = assay: Ex vivo spasmolytic activity in ACh-induced contractions in Sprague-Dawley rat ileum at 0.5 to 8 uM incubated for 5 mins relative to control; assay type: functional; details: dose 0.5-8 µM
Ileum [3] = assay: Ex vivo spasmolytic activity in ACh-induced contractions in Sprague-Dawley rat ileum at 0.5 to 8 uM incubated for 5 mins in presence ODQ relative to control; assay type: functional; details: dose 0.5-8 µM
Ileum [4] = assay: Ex vivo spasmolytic activity in CaCl2-induced contractions in Sprague-Dawley rat ileum at 1 to 2 uM incubated for 15 mins; assay type: functional, tissue-based; details: dose 1-2 µM
Ileum [5] = assay: Ex vivo spasmolytic activity in ACh-induced contractions in Sprague-Dawley rat ileum incubated for 5 mins in presence of 4-AP; assay type: functional, tissue-based
Ileum [6] = assay: Ex vivo spasmolytic activity in ACh-induced contractions in Sprague-Dawley rat ileum incubated for 5 mins in presence of GLIB; assay type: functional, tissue-based
Ileum [7] = assay: Ex vivo spasmolytic activity in ACh-induced contractions in Sprague-Dawley rat ileum at 0.5 to 8 uM incubated for 5 mins in presence of GLIB relative to control; assay type: functional; details: dose 0.5-8 µM
Ileum [8] = assay: Ex vivo spasmolytic activity in ACh-induced contractions in Sprague-Dawley rat ileum incubated for 5 mins in presence L-NAME; assay type: functional, tissue-based
Ileum [9] = assay: Ex vivo spasmolytic activity in ACh-induced contractions in Sprague-Dawley rat ileum at 0.5 to 8 uM incubated for 5 mins in presence of 4-AP relative to control; assay type: functional; details: dose 0.5-8 µM
Ileum [10] = assay: Ex vivo spasmolytic activity in ACh-induced contractions in Sprague-Dawley rat ileum at 2 uM incubated for 5 mins; assay type: functional, tissue-based
Ileum [11] = assay: Ex vivo spasmolytic activity in ACh-induced contractions in Sprague-Dawley rat ileum at 0.5 to 8 uM incubated for 5 mins in presence of CsCl relative to control; assay type: functional; details: dose 0.5-8 µM
Ileum [12] = assay: Ex vivo spasmolytic activity in ACh-induced contractions in Sprague-Dawley rat ileum at 0.5 to 8 uM incubated for 5 mins in presence L-NAME relative to control; assay type: functional; details: dose 0.5-8 µM
Ileum [13] = assay: Ex vivo spasmolytic activity in ACh-induced contractions in Sprague-Dawley rat ileum incubated for 5 mins in presence of TEA; assay type: functional, tissue-based
Ileum [14] = assay: Ex vivo spasmolytic activity in ACh-induced contractions in Sprague-Dawley rat ileum at 0.5 to 8 uM incubated for 5 mins in presence of TEA relative to control; assay type: functional; details: dose 0.5-8 µM
Ileum [15] = assay: Ex vivo spasmolytic activity in ACh-induced contractions in Sprague-Dawley rat ileum incubated for 5 mins in presence ODQ; assay type: functional, tissue-based
Ileum [16] = assay: Ex vivo spasmolytic activity in ACh-induced contractions in Sprague-Dawley rat ileum incubated for 5 mins in presence of CsCl; assay type: functional, tissue-based

Structure (SMILES): COc1c2cc(c(O)c1OC)CCCCC(=O)CCc1ccc(O)c-2c1 [MYRICANONE]
- EC50 (Ileum [1]): 2900 nM

Structure (SMILES): COc1c2cc(c(O)c1OC)CCCC[C@@H](O)CCc1ccc(O)c-2c1
- EC50 (Ileum [1]): 2900 nM

Structure (SMILES): COc1c2cc(c(O[C@@H]3O[C@H](CO)[C@@H](O)[C@H](O)[C@H]3O)c1OC)CCCC[C@@H](O)CCc1ccc(O)c-2c1
- EC50 (Ileum [1]): 3200 nM

Structure (SMILES): COc1c2cc(c(O)c1OC)CCCC[C@@H](OC(C)=O)CCc1ccc(O)c-2c1
- EC50 (Ileum [1]): 3700 nM

Structure (SMILES): CCN(CC)CCOC(=O)C1(C2CCCCC2)CCCCC1 [DICYCLOMINE]
- EC50 (Ileum [1]): 600 nM

Structure (SMILES): COc1cc2cc(c1OC)-c1cc(ccc1O)C[C@H](O)C(=O)CCC2
- Emax (Ileum [2]): 79.8%
- Emax (Ileum [3]): 81.7%
- Activity (Ileum [4]): Active
- EC50 (Ileum [5]): 1900 nM
- EC50 (Ileum [6]): 1700 nM
- Emax (Ileum [7]): 84.9%
- EC50 (Ileum [8]): 5100 nM
- Emax (Ileum [9]): 71.9%
- Activity (Ileum [10]): Active; Activity Less Than Dichloromethane
- Emax (Ileum [11]): 82.7%
- Emax (Ileum [12]): 43%
- EC50 (Ileum [13]): 1500 nM
- EC50 (Ileum [1]): 1400 nM
- Emax (Ileum [14]): 60.8%
- EC50 (Ileum [15]): 1600 nM
- EC50 (Ileum [16]): 1600 nM

Structure (SMILES): COc1c2cc(c(OC)c1O)-c1cc(ccc1O)CC[C@H](O)CCCC2
- EC50 (Ileum [1]): 1500 nM

Structure (SMILES): COc1c2cc(c(OC)c1OC)-c1cc(ccc1O)[C@H](O)CC(=O)CCCC2
- EC50 (Ileum [1]): 4600 nM

Structure (SMILES): COc1c2cc(c(O[C@@H]3O[C@H](CO)[C@@H](O)[C@H](O)[C@H]3O)c1OC)CCCC[C@@H](OC(C)=O)CCc1ccc(O)c-2c1
- EC50 (Ileum [1]): 2800 nM

Structure (SMILES): COc1c2cc(c(O[C@@H]3O[C@H](CO)[C@@H](O)[C@H](O)[C@H]3O)c1OC)CCCCC(=O)[C@@H](O)Cc1ccc(O)c-2c1
- EC50 (Ileum [1]): 2400 nM

Structure (SMILES): COc1c2cc(c(OC)c1OC)-c1cc(ccc1O)C[C@@H](O)[C@@H](O)CCCC2
- EC50 (Ileum [1]): 2800 nM

Structure (SMILES): COc1c2cc(c(O[C@@H]3O[C@H](CO)[C@@H](O)[C@H](O)[C@H]3O)c1OC)CCCCC(=O)CCc1ccc(O)c-2c1
- EC50 (Ileum [1]): 2300 nM

Structure (SMILES): COc1c2cc(c(O[C@@H]3O[C@H](CO)[C@@H](O)[C@H](O)[C@H]3O)c1OC)CCCC(=O)[C@@H](O)Cc1ccc(O)c-2c1
- EC50 (Ileum [1]): 1600 nM

Structure (SMILES): COc1c2cc(c(O[C@@H]3O[C@H](CO)[C@@H](O)[C@H](O)[C@H]3O)c1OC)CCCC[C@H](O)CCc1ccc(O)c-2c1
- EC50 (Ileum [1]): 2400 nM

Structure (SMILES): COc1cc2cc(c1OC)-c1cc(ccc1O)CCC(=O)CCCC2
- EC50 (Ileum [1]): 5000 nM

Structure (SMILES): COc1c2ccc(c1O)CCCCC(=O)CCc1ccc(O)c(c1)O2
- EC50 (Ileum [1]): 3800 nM

Structure (SMILES): COc1c2ccc(c1O[C@@H]1O[C@H](CO)[C@@H](O)[C@H](O)[C@H]1O)CCCCC(O)CCc1ccc(O)c(c1)O2 (stereo partly drawn)
- EC50 (Ileum [1]): 3600 nM

Structure (SMILES): COc1c2cc(c(O)c1OC)CCCC(=O)[C@@H](O)Cc1ccc(O)c-2c1
- EC50 (Ileum [1]): 5100 nM

From ChEMBL document CHEMBL6120997, “Macrocyclic Compounds with Diverse Skeletons from the Roots of Myrica nana and Their Spasmolytic Activity” (J Nat Prod, 2025)
